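Interpolation was linear, between the two tested concentrations surrounding the appropriate level; five concentrations were tested over 48 hours in 96-well plates. At the TGI there is no net growth.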
How the values were obtained:
Experiment in all cases: DTP human tumour cell line panel, 48 h
[1] = tested on: 786-0 renal
[2] = tested on: RPMI-8226 leukemia
[3] = tested on: M14 melanoma
[4] = tested on: KM12 colon
[5] = tested on: SR leukemia
[6] = tested on: SNB-75 CNS
[7] = tested on: SNB-19 CNS
[8] = tested on: T-47D breast
[9] = tested on: HCT-15 colon
[10] = tested on: NCI-H23 lung

SMILES	TGI [1] [µM]	TGI [2] [µM]	TGI [3] [µM]	TGI [4] [µM]	TGI [5] [µM]	TGI [6] [µM]	TGI [7] [µM]	TGI [8] [µM]	TGI [9] [µM]	TGI [10] [µM]
C=CCn1c(=O)ccn(/C(=C/C(=O)OCC)C(=O)OCC)c1=O	11.7	31.4	28.1	32.9	23.2	30.4	> 58.3	19	6.52	36.4
CCc1n[nH]c(=O)n1-c1ccc2ccccc2c1	> 100	> 100	> 100	> 100	> 100	> 100	> 100	> 100	> 100	> 100
CCOC(=O)CC/C(=N/Nc1ccc(Cl)cc1[N+](=O)[O-])C(=O)OCC	> 100	> 100	> 100	> 100	> 100	> 100	> 100	> 100	> 100	> 100
COc1cccc2c1OC(c1cccc3ccccc13)C([N+](=O)[O-])=C2 (stereo not drawn)	3.95	> 100	2.77	3.05	> 100	2.65	3.01	5.69	3.8	4.29
COc1cc(C=O)ccc1O	> 100	> 100	> 100	> 100	> 100	> 100	> 100	> 100	> 100	> 100
COc1cc(Nc2ccc3c(c2)CCC3)nc(OC)n1	> 100	40.9	> 100	91.9	77.8	53.5	> 100	> 100	> 100	> 100
O=C(O)C(O)C(O)C(O)C(O)CO (stereo not drawn)	> 100	> 100	> 100	> 100	> 100	> 100	> 100	> 100	> 100	> 100
CC(C)Oc1cccc(N2C(=NCc3c[nH]c4ccccc34)Nc3ccncc3S2(=O)=O)c1	> 100	30	62.6	> 100	> 100	67.7	> 100	85.2	> 100	> 100
CC(C)N1CCN(c2ccc(OCC3COC(Cn4cncn4)(c4ccc(Cl)cc4Cl)O3)cc2)CC1 (stereo not drawn)	14.5	29.7	> 20	28.8	12.1	27.5	> 57.4	47.8	26.5	30.9
CN(C)Cc1cc(C(=O)/C=C/c2ccc([N+](=O)[O-])cc2)cc(CN(C)C)c1O	15.2	6.98	23.3	29.7	22.2	33.3	> 100	32	25.1	47.5
Cc1cc(OP2(=O)NCc3ncccc3O2)ccc1Cl (stereo not drawn)	> 100	> 100	> 100	> 100	> 100	> 100	> 100	> 100	> 100	> 100
CC(C)(C)OC(=O)NC(CSSCC(NC(=O)OC(C)(C)C)C(=O)O)C(=O)O (stereo not drawn)	> 100	> 100	> 100	> 100	> 100	> 100	> 100	> 100	> 100	> 100
O=C(O)c1cccc(S(=O)(=O)NN2C(=O)CSC2c2ccc(Cl)cc2Cl)c1 (stereo not drawn)	29.4	> 100	> 100	> 100	83.5	> 100	> 100	> 100	> 100	> 100
CCOC(=O)/C(C(C)=O)=C(\OC(C)=O)c1ccncc1C(=O)O	> 100	> 100	> 100	> 100	> 100	> 100	> 100	> 100	> 100	> 100
COc1ccc(C(=O)NCCN(C)C)c2nc3ccccc3cc12	12.1	6.71	2.99	7.79	1.5	13.3	9.49	12.6	7.22	2.2
O=C(CCSC1=NCCCN1)c1ccc(F)cc1	14.1	14.8	32.4	46.6	13.3	42.6	42.7	> 70.6	36.2	43.4
Clc1ccc(C=NC23CC4CC(CC(C4)C2)C3)c(Cl)c1	> 10	> 10	> 10	> 10	> 10	> 10	> 10	> 10	> 10	> 10
O=[N+]([O-])c1cc2oc(CSc3ccccc3)nc2cc1Cl	> 100	> 100	> 100	> 100	> 100	67.5	> 100	> 100	> 100	88.6
CN1CCN(Cc2cc3c(nn2)-c2ccccc2C3=O)CC1	> 100	> 100	> 100	> 100	> 100	> 100	> 100	> 100	> 100	> 100
C[C@@H]1CCC2[C@@H](C)[C@@H](O[C@H]3O[C@@H]4O[C@@]5(C)CCC6[C@H](C)CCC([C@H]3C)[C@]64OO5)O[C@@H]3O[C@@]4(C)CCC1[C@@]23OO4 (stereo partly drawn)	> 25	> 7.26	> 25	> 25	> 25	> 25	> 25	> 25	> 25	> 25
O=c1onc2n1-c1cc(Cl)ccc1C(=S)N1CSCC21 (stereo not drawn)	> 100	> 100	> 100	> 100	> 100	> 100	> 100	> 100	> 100	
CCN(C(=O)N[C@@H](C)C(=O)N[C@@H](Cc1ccccc1)C(=O)OC)c1ccccc1	> 100	> 100	> 100	> 100	> 100	> 100	> 100	> 100	> 100	> 100
c1ccc(C(C(=Nc2ccc(Cc3ccc(N=C(C(c4ccccc4)c4ccccc4)N4CC4)cc3)cc2)N2CC2)c2ccccc2)cc1	65.5	39.5	70	24.5	15.7		27.7	16.5	21.7	30.8
OCCCc1ccc2c(c1)[C@H](CO)[C@@H](c1ccc(O)cc1)O2	> 100	> 100	> 100	> 100	> 100	> 100	> 100	> 100	> 100	> 100

— PubChem BioAssay (NCI)
